Entries after “also recorded” stand apart in the source; their conditions may differ.
What was measured:
[1] = HPLC-based chromatographic hydrophobicity index on immobilized artificial membranes (CHI IAM); assay type: physicochemical; conditions: IAM PC DD2 column, acetonitrile / 50 mM ammonium acetate gradient
Description: Physicochemical properties of a drug such as lipophilicity and non-specific binding to membranes and plasma proteins are crucial parameters of a potential radiotracer, in particular if it is supposed to pass the blood brain barrier (BBB). The lipophilicity (logD7.4) was estimated using the commercially available ACD/Labs-12.5 software and the non-specific binding was estimated by the high-performance liquid chromatography (HPLC)-based hydrophobicity index at immobilized artificial membranes (CHI IAM) for seven fluorine substituted candidate molecules and (S)-13 without fluorine (Table 3).
The chromatographic hydrophobicity index on immobilized artificial membranes (CHI IAM) was experimentally determined by a HPLC method described by Valko and co-workers using a IAM PC DD2 column (100 × 4.6 mm, […], Regis Technologies, IL, USA), a gradient of acetonitrile, and 50 mM ammonium acetate as eluent and acetanilide, acetophenone, 1,4-dinitrobenzene, anisole propiophenone, valerophenone, and octanophenone as references.

[2] = target: T1, hGhrR (COS7 cells stably transfected with hGhrR) (Homo sapiens, UniProt Q92847); experiment: Inositol phosphate accumulation assay, antagonistic potency with 10^-8 M ghrelin; assay type: cell-based
T1 construct: expressed in transfected cells
Description: Antagonistic properties at the hGhrR
antagonistic potency in an inositol phosphate accumulation assay (Table S1). The receptor was
Table S1. Inositol phosphate accumulation assay to determine antagonistic potencies of candidate
Compounds were analyzed by inositol phosphate accumulation in COS7 cells stably

[3] = target: hGhrR (COS7 cells stably expressing hGhrR-eYFP) (Homo sapiens, UniProt Q92847); experiment: cell-based
adrenergic α1BRs = experiment: Commercial screening by Eurofins Panlabs; assay type: binding
adrenergic α1ARs = experiment: Commercial screening by Eurofins Panlabs; assay type: binding
GhrR = target: GhrR; parameters: method as in PMID 22342626; conditions: previously published value; cited from earlier work
serotonin 5-HT2BRs = target: T2, serotonin 5-HT2BRs (Homo sapiens, UniProt P41595); experiment: Commercial screening by Eurofins Panlabs; assay type: binding
T2 construct: Eurofins Panlabs (Taiwan), contract screening

rat σ2 receptor = target: T3, rat σ2 receptor (Rattus norvegicus, UniProt Q5U3Y7); experiment: Selectivity radioligand displacement, [3H]DTG, rat liver homogenate; assay type: binding; conditions: [3H]DTG + 1 µM dextrallorphan
T3 construct: rat σ2 receptor = rat liver homogenate; from tissue; host or cells: rat liver homogenate
T3 sequence (Q5U3Y7 1-176): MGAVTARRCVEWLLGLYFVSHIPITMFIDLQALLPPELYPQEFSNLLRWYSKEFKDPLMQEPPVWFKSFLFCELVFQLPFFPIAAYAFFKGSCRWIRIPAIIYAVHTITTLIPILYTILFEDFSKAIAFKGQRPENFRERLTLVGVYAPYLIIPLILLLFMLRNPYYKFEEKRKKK
Description: […]
The incubations were terminated by rapid filtration via glass-fiber filters presoaked in PEI (0.3%, 60 min at rt), and the filter-bound radioactivity was counted by liquid scintillation counting (Tricarb, PerkinElmer).

chemokine CXCR3Rs = target: T4, chemokine CXCR3Rs (Homo sapiens, UniProt P49682); experiment: Commercial screening by Eurofins Panlabs; assay type: binding
T4 construct: Eurofins Panlabs (Taiwan), contract screening
T4 sequence (P49682 1-368): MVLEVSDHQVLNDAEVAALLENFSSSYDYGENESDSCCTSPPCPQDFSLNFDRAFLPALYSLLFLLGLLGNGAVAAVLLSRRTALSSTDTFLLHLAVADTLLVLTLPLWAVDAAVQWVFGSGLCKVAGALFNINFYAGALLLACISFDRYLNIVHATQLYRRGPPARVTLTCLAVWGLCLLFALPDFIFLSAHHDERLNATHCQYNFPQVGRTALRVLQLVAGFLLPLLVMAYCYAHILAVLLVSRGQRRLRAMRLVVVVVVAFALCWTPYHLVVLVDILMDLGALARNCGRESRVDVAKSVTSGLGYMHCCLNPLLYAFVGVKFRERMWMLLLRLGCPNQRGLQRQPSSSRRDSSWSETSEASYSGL

Chain of hGhrR (COS7 cells stably expressing hGhrR-eYFP) (Q92847 whole entry): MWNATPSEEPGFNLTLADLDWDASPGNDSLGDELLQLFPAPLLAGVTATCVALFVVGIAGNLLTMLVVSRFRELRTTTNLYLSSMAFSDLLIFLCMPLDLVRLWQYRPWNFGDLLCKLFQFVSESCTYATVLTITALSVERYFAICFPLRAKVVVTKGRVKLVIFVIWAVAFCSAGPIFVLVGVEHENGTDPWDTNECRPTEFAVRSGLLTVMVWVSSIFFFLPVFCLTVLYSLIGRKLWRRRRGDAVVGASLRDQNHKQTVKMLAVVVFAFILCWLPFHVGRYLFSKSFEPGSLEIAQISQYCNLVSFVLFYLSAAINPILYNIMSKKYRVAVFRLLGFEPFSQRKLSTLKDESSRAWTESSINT
T2 sequence (P41595 whole entry): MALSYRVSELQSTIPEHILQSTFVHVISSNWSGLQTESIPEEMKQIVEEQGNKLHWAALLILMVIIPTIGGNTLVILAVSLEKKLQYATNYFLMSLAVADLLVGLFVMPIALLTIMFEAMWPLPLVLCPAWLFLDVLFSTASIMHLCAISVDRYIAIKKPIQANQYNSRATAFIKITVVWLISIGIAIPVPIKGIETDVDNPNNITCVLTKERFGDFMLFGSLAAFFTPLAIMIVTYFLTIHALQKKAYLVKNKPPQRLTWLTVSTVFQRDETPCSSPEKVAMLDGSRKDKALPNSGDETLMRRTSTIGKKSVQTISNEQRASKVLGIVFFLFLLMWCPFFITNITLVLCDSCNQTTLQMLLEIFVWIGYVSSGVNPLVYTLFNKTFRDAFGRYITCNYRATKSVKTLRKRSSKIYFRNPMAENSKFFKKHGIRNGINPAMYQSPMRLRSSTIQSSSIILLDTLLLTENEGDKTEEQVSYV
T1 sequence (Q92847 whole entry): as the sequence (Q92847 whole entry) above

Cc1nc2ccc(Oc3ccc(Br)cc3F)nc2c(=O)n1C[C@H]1CCCN(C(C)C)C1 [(S)-9, (S)-6-(4-Bromo-2-fluorophenoxy)-3-((1-isopropylpiperidin-3-yl)methyl)-2-methylpyrido[3,2-d]pyrimidin-4(3H)-one]
CHI IAM [1]: 43.0 | IC50 ([2]; 5 min pre-stimulation with compound, then 10^-8 M ghrelin, read-out: IC50 (antagonistic potency)): 24800 pM | Emax ([2]; COS-7, read-out: Emax (antagonistic efficacy)): 38 ± 4% | Emax ([3]; COS-7, mean ± SEM, refers to ghrelin Emax as 100%, 0% = constitutive receptor activity): ~60% | EC50 ([3]; EC50, 2 h stimulation in absence of ghrelin, COS7-hGhrR): 700 pM | EC50 ([3]; pEC50, mean ± SEM, 2 h stimulation in absence of ghrelin): 676 pM | significant response (≥50% inhibition or stimulation) (adrenergic α1BRs): did not show significant responses; also recorded: did not show significant binding | significant response (≥50% inhibition or stimulation) (adrenergic α1ARs): did not show significant responses; also recorded: did not show significant binding | Ki (GhrR): 10 pM | significant response (≥50% inhibition or stimulation) (serotonin 5-HT2BRs): did not show significant responses; also recorded: did not show significant binding | Ki (rat σ2 receptor): 87000 ± 23000 pM | significant response (≥50% inhibition or stimulation) (chemokine CXCR3Rs): did not show significant responses; also recorded: did not show significant binding
